The text below walks through data of publication PMC3927586, “Protein kinase C-delta inactivation inhibits the proliferation and survival of cancer stem cells in culture and in vivo” (BMC Cancer, 2014).

Several values for one entry are separate records, joined by “and”; a condition that tells them apart may be missing. Equal entries are not always repeated. Where two headings read alike, the source gives them in different places. Bounds are passed on as bounds.

Data set [1] concerns Panc1. As to the kind of experiment: Tumor spheroid growth, Panc1 pancreatic cancer. The settings on record: p < 0.001. The format is cell-based, human.
Data set [2] concerns MCF 10C cells. As to the kind of experiment: Cell proliferation (MTT) of transformed breast epithelial cells. The format is cell-based, human. The following applies: for IC50: Homo sapiens, Epithelial cell, 72 hr, read-out: IC50 for the MCF 10C derivative; for concentration with significant effect on MCF 10C cells: as early as 24 hr. On the procedure: Cell proliferation was assessed using an MTT [3-(4,5-dimethylthiazol-2-yl)-2,5-diphenyltetrazolium bromide] assay (Roche, Mannheim, Germany). The number of viable cells growing in a single well on a 96-well microtiter plate was estimated by adding 10 μl of MTT solution (5 mg/ml in phosphate-buffered saline [PBS]). After 4 h of incubation at 37°C, the stain was diluted with 100 μl of dimethyl sulfoxide. The optical densities were quantified at a test wavelength of 570 nm and a reference wavelength of 690 nm on a multiwell spectrophotometer. In some assays, MTS was used as substrate (Promega, Madison, WI), and the absorbance of the product was monitored at 490 nm. Cell enumeration was carried out using a hemocytometer, and viable cells identified by trypan blue exclusion.
Figure 5 Effects of PKCδ inhibitors on growth and spheroid formation in non-transformed and transformed human breast epithelial cells. MCF 10A cells and cells from the derived tumorigenic line MCF 10C (also called M3), were grown to 80% confluence in 96-well plates and then exposed to rottlerin at concentrations ranging from 1 to 20 μM (A) or to BJE6-106 at concentrations ranging from 0.1 to 20 μM (B). The corresponding equivalent volume of solvent (DMSO) was used as a vehicle control (Vehicle). After 24, 48 and 72 hr of exposure, cell mass was evaluated by MTT assay. Control (vehicle) values were normalized to 100%. Error bars represent SEM. p values for comparison between vehicle and PKCδ inhibitors on MCF 10A cell number only reached significance (p < 0.05) at 48 hr at 20 μM for rottlerin, and at 1 μM for BJE6-106. In contrast, significant effects of the inhibitors on the MCF 10C cells were observed as early as 24 hr for rottlerin (at 5 μM) and for BJE6-106 (at 0.1 μM). (C) MCF 10A and MCF 10C cells were plated at 10,000 cells per well in tumor spheroid media, and spheroid formation was assessed at days 10 and 21. Representative photographs are shown. (D) MCF 10C cells were plated at 10,000 cells per well in tumor spheroid media, in the presence of rottlerin (5 μM), or BJE6-106 (1 μM or 5 μM), or DMSO vehicle (Control). Tumor spheroids were enumerated at 10 days. Representative photographs are shown. (E) Spheroid numbers were normalized to the number of spheroids in the control cultures (assigned an arbitrary value of 100%) and plotted. Error bars represent SEM. p values for comparison between vehicle and rottlerin or BJE6-106 effects on spheroid number were significant (p < 0.001).

Data set [3] deals with PCSC cells. As to the kind of experiment: Cytotoxicity (LDH release) in pancreatic cancer stem cells. The format is cell-based, human. On the procedure:
LDH release was assessed by spectrophotometrically measuring the oxidation of NADH in both the cells and media. Cells were seeded in 24-well plates, and exposed to PKCδ inhibitors or vehicle. After different times of exposure, cytotoxicity was quantified by a standard measurement of LDH release with the use of the LDH assay kit (Roche Molecular Biochemicals) according to the manufacturer’s protocol. Briefly, total culture medium was cleared by centrifugation. For assay of released LDH, supernatants were collected. To assess total LDH in cells, Triton X-100 was added to vehicle (control) wells to release intracellular LDH. LDH assay reagent was added to lysates or supernatants and incubated for up to 30 min at room temperature in dark, the reaction was stopped, and the absorbance was measured at 490 nm. The percentage of LDH release was then calculated as the LDH in the supernatants as a fraction of the total LDH.
Figure 2 Effects of PKCδ inhibitors on human cancer stem cells. (A) PCSC and PrCSC cells at 80% confluence were exposed to rottlerin. DMSO served as vehicle control (Vehicle). After 24 and 72 hr of exposure, cell mass was evaluated by MTT assay. Control values were normalized to 100%. p values for comparison between treatments reached significance at 24 hr of exposure (p≤0.01) for both cell types, and remained significant at 72 hr. (B) PCSC and PrCSC cells at 50% confluence were exposed to rottlerin. Cytotoxicity was evaluated by LDH-release assay. Total maximal LDH release was assigned the arbitrary value of 100% (Control). p values for comparison between effects of treatments on LDH release reached significance at 24 hr of exposure (p<0.01) for both cell types, and remained significant at 72 hr. (C) Effects of PKCδ inhibitor on tumor cell clonogenic capacity. PCSC were exposed to vehicle or rottlerin (10 μM) for 6, 18, 24, or 48 hr. Viable cells were enumerated and re-plated in media without inhibitor, and colony numbers were quantitated 15 days later. p values for comparison of treatment effects on clonogenic capacity reached significance (p=0.005) at 18 hr of exposure and remained significant for all subsequent exposure times. The insert is a photograph of stained colonies on plates. (D) Structures of staurosporine, rottlerin, second-generation (KAM1) and third-generation (BJE6-106) derivatives. (E) PCSC and PrCSC cells at 50% confluence were exposed to KAM1 at the indicated concentrations. DMSO served as vehicle control (Vehicle). Cytotoxicity was evaluated by LDH-release assay, as in panel B. p values for comparison between treatment effects on LDH release reached significance at 24 hr of exposure to 2.5 μM KAM1 for PCSC cells and at 10 μM for PrCSC (p≤0.01), and remained significant at 72 hr for all concentrations of KAM1. Error bars represent SEM.

The target of data set [4] is T1, recombinant PKCδ (Homo sapiens, UniProt Q05655).
T1 construct: purchased Invitrogen
As to the kind of experiment: PKC kinase activity assay (Z-lyte), PKCδ. The format is biochemical. The following applies: for PKCδ/PKCα Selectivity ratio: PKCδ versus PKCα in vitro. On the procedure:
(§1) Assays were carried out using recombinant PKCδ or PKCα, (Invitrogen) and the Z-lyte Kinase Assays (Invitrogen) with a “PKC-kinase-specific” peptide substrate. FRET interactions produce a change in fluorescence (ex455/ex520) upon phosphorylation. The kit was used according to the manufacturer’s instructions.

Data set [5] relates to DU145. As to the kind of experiment: Tumor spheroid growth, DU145 prostate cancer. The class given is cell-based, human. The settings on record: p < 0.001.
In data set [6] the test system is FN5. As to the kind of experiment: Tumor spheroid growth, FN5 melanoma. The following applies: p < 0.001. The format is cell-based, human.
Data set [7] addresses T2, recombinant PKCα (Homo sapiens, UniProt P17252).
T2 construct: purchased Invitrogen
As to the kind of experiment: PKC kinase activity assay (Z-lyte), PKCα. The format is biochemical. On the procedure: as §1

Where [8] appears, read: in vitro kinase assay, read-out: PKCδ IC50.

T1 sequence (Q05655 whole entry): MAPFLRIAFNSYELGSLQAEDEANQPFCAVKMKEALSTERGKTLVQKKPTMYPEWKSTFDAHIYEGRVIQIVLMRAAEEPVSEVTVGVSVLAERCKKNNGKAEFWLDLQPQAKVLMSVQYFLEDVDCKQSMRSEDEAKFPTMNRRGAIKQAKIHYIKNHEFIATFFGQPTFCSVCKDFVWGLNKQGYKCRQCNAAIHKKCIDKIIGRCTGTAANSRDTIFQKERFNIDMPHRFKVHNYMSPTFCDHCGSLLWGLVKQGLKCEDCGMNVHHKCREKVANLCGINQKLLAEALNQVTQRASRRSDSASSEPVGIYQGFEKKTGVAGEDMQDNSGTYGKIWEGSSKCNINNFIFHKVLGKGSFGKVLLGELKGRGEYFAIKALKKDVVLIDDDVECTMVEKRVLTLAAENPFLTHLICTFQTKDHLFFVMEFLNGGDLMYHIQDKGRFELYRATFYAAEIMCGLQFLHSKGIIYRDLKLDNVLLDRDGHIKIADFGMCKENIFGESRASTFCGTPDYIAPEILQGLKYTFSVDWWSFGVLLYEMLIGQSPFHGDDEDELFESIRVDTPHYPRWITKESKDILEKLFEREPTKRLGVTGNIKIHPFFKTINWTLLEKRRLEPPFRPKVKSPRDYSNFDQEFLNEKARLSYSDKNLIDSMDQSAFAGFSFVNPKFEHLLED

Regarding `CC1(C)C=Cc2cc(CCn3c4ccccc4c4ccccc43)cc(C=O)c2O1` [BJE6-106, 6-(2-(9H-carbazol-9-yl)ethyl)-2,2-dimethyl-2H-chromene-8-carbaldehyde], in data set [1] (BJE6-106 at 0.5-1.0 μM), the “inhibition of tumor spheroid growth, Panc1” value is given as above 99%. The IC50 in data set [2] was around 100 nM; in data set [4] (setting [8]) it was ~50 nM and 50 nM; in data set [7] (in vitro kinase assay, read-out: PKCα IC50), 50000 nM. Also, the “concentration with significant effect on MCF 10C cells” value in data set [2] was determined as 0.1 µM. Besides, in data set [3] (data not shown), the “increase in potency compared to rottlerin, LDH release” value was “greater than 10 fold”. Besides, the “PKCδ/PKCα Selectivity ratio” value in data set [4] was “approximately 1000 fold”; in data set [4] (listed as 3), 1000-fold. Also, the “inhibition of tumor spheroid growth, DU145” value in data set [5] (BJE6-106 at 0.5-1.0 μM) is above 98%. For the same compound, in data set [6] (BJE6-106 at 0.5-1.0 μM), the “inhibition of tumor spheroid growth, FN5” value is recorded as above 99.5%.

In the case of `CC(=O)c1c(O)c(C)c(O)c(Cc2c(O)c3c(c(C(=O)/C=C/c4ccccc4)c2O)OC(C)(C)C=C3)c1O` [rottlerin, Rottlerin, reference compound], the inhibition at 10 µM in data set [1] (Homo sapiens, PANC-1, rottlerin at 10 μM) is above 99%; in data set [5] (Homo sapiens, DU-145, rottlerin at 10 μM), above 98%; in data set [6] (Homo sapiens, rottlerin at 10 μM), above 99.5%. Also, the IC50 in data set [2] was around 1000 nM; in data set [4] (PKCδ IC50, in vitro kinase assay), around 5000 nM; in data set [4] (setting [8]), 3000 nM; in data set [7], 75000 nM. Besides, the “concentration with significant effect on MCF 10C cells” value in data set [2] came out at 5 µM. In addition, the “cytotoxicity in PCSC (LDH release)” value in data set [3] (dose-dependent, 24 and 72 hr) is on record as “induced cytotoxicity”.
